# Data: patent US5858702A, “Isolation, cloning and expression of transmembrane water channel Aquaporin 5 (AQP5)” (The Johns Hopkins University, priority 1995, dated 1999)
# Entries after “also recorded” stand apart in the source; their conditions may differ.
# Assays:
# [1] = target: T1, AQP1 (Homo sapiens, UniProt P29972); assay: Xenopus oocyte osmotic swelling assay, AQP1 RNA-injected oocytes treated with HgCl2 / β-mercaptoethanol; format: cell-based; conditions: for Pf: AQP1 RNA-injected (10 ng) oocytes
# T1 construct: expressed in transfected cells; host or cells: Xenopus laevis oocytes injected with in vitro transcribed AQP1 RNA
# T1 sequence (P29972 1-269): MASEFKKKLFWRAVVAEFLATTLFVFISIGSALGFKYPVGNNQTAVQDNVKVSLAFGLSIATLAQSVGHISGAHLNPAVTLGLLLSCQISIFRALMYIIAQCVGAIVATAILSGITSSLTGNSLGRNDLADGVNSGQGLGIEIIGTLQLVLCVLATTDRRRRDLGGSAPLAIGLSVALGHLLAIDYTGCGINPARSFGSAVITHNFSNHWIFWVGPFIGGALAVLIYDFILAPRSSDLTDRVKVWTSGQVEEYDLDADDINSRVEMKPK
# Method: (§1) Expression of AOP1 in Xenopus oocytes. Oocytes were removed from female Xenopus laevis frogs and prepared as described by Dascal (CRC Crit. Rev. Biochem., 1987, 22:317-373). Oocytes were injected with 0.05 microliters of water (control) or the same volume of water containing 1-10 nanograms of AQP1 RNA. The oocytes were incubated for up to 96 hours at 18° C. in modified Barth's buffer (88 mM NaCl, 1 mM KCl, 0.8 mM MgSO4, 0.3 mM Ca(NO3) 2, 0.4 mM CaCl2, 2.4 mM NaHCO3, 10 mM HEPES, pH =7.4, total osmolality =200 mOsm/kg) also containing antibiotics. The whole oocytes were then removed and total cellular protein was dissolved in 40 microliters of buffer containing 1% (w/v) SDS and analyzed by immunoblot (Towbin et al., 1979, Proc. Natl. Acad. Sci. USA 76:4350-4354).
# (§2) A swelling assay was adapted from that of published work (Fischbarg et al., 1990, Proc. Natl. Acad. Sci. USA 87:3244-3247; Zhang et al., 1990, J. Biol. Chem. 265:15375-15378). Control-injected oocytes and AQP1 RNA-injected oocytes were incubated at 22° C. in modified Barth's solution diluted with distilled H2 O to 30% of the original tonicity. The oocytes were then observed by videomicroscopy. Swelling was monitored with a Nikon phase-contrast microscope equipped for videorecording. The longest (D1) and shortest (D2) diameters of the oocytes were measured at 15- to 30-second intervals. Oocyte volumes (V) at each time point were calculated relative to volume at the initial observation (V0):
# The change in relative volume with time, d(V/Vo)/dt, up to 8 minutes (or time of oocyte rupture) was fitted by computer to a quadratic polynomial, and initial rates of swelling were calculated. Osmotic water permeability (Pf, in cm/s) was calculated from osmotic swelling data, initial oocyte surface area (S=0.045 cm^2), and the molar volume of water (Vw =18 cm^3 /mol) (Zhang et al., 1990, J. Biol. Chem. 15375):
# Pf =[Vo ×d(V/V0)dt]/[S×Vw
# After 72 hours, control- or AQP1 RNA-injected (10 ng) oocytes were treated as indicated. Some oocytes were left in standard Barth's buffer prior to measurement of osmotic swelling at 22° C. […]
# [2] = system: Xenopus oocytes; assay: Osmotic water permeability (swelling) of control- or AQP1 RNA-injected Xenopus oocytes; format: cell-based, Xenopus laevis; conditions: control-injected oocytes (RNA None), 22° C.
# Method: as §1
# as §2, with “Control-injected oocytes and AQP1 RNA-injected oocytes were incubated at 22° C. in modified Barth's solution diluted with distilled H2 O to 30% of the original tonicity. The oocytes were then observed by videomicroscopy.” left out, “(V0): […]” for “(V0):”
# [3] = target: T2, AQP5 (Rattus norvegicus, UniProt P47864); assay: Xenopus oocyte swelling assay, AQP5-expressing oocytes treated with HgCl2 / β-mercaptoethanol; format: cell-based; conditions: for effect of HgCl2 on Pf of oocytes expressing AQP5: 1 mM HgCl2, 5 min.
# T2 construct: expressed in transfected cells; host or cells: Xenopus oocytes (defolliculated, stage V-VI) injected with cRNA
# T2 sequence (P47864 whole entry): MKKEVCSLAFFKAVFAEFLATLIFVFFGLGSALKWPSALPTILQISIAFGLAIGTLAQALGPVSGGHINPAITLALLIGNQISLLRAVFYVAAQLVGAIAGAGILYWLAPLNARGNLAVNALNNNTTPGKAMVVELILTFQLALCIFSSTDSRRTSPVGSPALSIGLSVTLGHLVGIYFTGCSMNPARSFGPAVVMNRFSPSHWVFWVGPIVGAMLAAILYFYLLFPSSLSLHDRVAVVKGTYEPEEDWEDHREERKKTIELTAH
# Method: Functional expression in Oocytes--A 1-kb BamHI fragment containing the 5' untranslated sequence and the entire open reading frame of the salivary cDNA was blunt-end-ligated into the BglII site of the Xenopus expression construct pXβG, which contains the HindIII-Pst insert of pSP64T in pBS II KS (Preston et al., 1992, Science, 256:385-387). Capped cRNA was synthesized in vitro after digestion with Xbal (Preston et al., 1993). Defolliculated stage V-VI Xenopus oocytes were injected with 50 nl of water or up to 5 ng of sample cRNAs and incubated for 3 days at 18° C. in 200 mosM modified Barth's buffer. The oocytes were transferred to 70 mosM modified Barth's buffer at 21° C.; oocyte swelling was monitored by videomicroscopy, and the coefficient of osmotic water permeability (Pf) was determined (Preston et al., 1992, 1993). Uptake of [^14 C]urea or [^14 C]glycerol was measured by incubating oocytes in 200 mosM Barth's buffer for 10-20 min at 21° C. followed by washing and SDS solubilization. No increase in ion conductance was found when control oocytes were compared to RNA-injected oocytes by two electrode voltage clamps (Preston et al, 1992).
# Shown are the mean values and standard deviations of 4-5 oocytes receiving no further treatment (stippled bars), oocytes incubated for 5 min. in 1 mM HgCl2 (black bars), or oocytes incubated for 5 min. in 1 mM HgCl2 followed by 30 min. in 5 mM β-mercaptoethanol (open bars). Similar to oocytes injected with AQP1 cRNA, injection of oocytes with the salivary cRNA increased the Pf by approximately 20-fold (FIG. 15). Therefore, the salivary protein qualifies as the 5th mammalian member of the Aquaporin family of water channels (Agre et al., 1993b, Am. J. Physiol., 265:F461), and the gene has been designated Aquaporin-5 (symbol AQP5) by the Genome Data Base.
Structure (SMILES),"Pf of AQP1 oocytes after HgCl2, effect of β-mercaptoethanol ([1]; 5 mM β-mercaptoethanol 30 min. after 1 mM HgCl2 (FIG. 15))","Swelling of AQP1 RNA-injected oocytes after HgCl2, effect of β-mercaptoethanol ([1]; 5 mM β-mercaptoethanol after 0.3 mM HgCl2)","Pf ([1]; HgCl2 0.3 then ME 5 for 15 min, 22° C.) [cm/s x 10^-4]",Pf [2] [cm/s x 10^-4],"Pf of AQP5 oocytes after HgCl2, effect of β-mercaptoethanol ([3]; 5 mM β-mercaptoethanol 30 min. after 1 mM HgCl2)","Swelling of AQP1 RNA-injected oocytes, effect of HgCl2 ([1]; 0.3 mM HgCl2)","effect of HgCl2 on increase in Pf mediated by AQP1 ([1]; 1 mM HgCl2, 5 min. (FIG. 15))","Pf ([1]; 72 hours, HgCl2 0.3, ME 0, 5 minutes, swelling at 22° C.) [cm/s x 10^-4]","Pf ([1]; 72 hours, HgCl2 3.0, ME 0, 5 minutes, 22° C.) [cm/s x 10^-4]","Pf ([2]; HgCl2 0.3 (nM), ME 0) [cm/s x 10^-4]",effect of HgCl2 on Pf of oocytes expressing AQP5 [3],effect of HgCl2 on Pf of oocytes expressing AQP5 ([3]; listed as Hg Cl2)
OCCS [β-mercaptoethanol],restored,restored,188,25.4,restored,–,–,–,–,–,–,–
[Cl][Hg][Cl] [HgCl2],–,–,–,–,–,inhibited,blocked,80.7,34.5,20.3,comparable reduction in Pf; also recorded: reversibly inhibited,reversibly inhibited
